Measurements from paper PMC6372246 (ACS Omega, 2019).
“And” between values parts separate entries of the source, which are not always exact repeats. Equal entries are not always repeated.

What was measured:
GRPR [1] = target: GRPR (Homo sapiens, UniProt P30550); assay: Fluorometric calcium release assay; assay type: cell-based; conditions: PC-3 cells, 50 nM
GRPR [2] = conditions: read-out: Ki (reported value); murine Swiss 3T3 cells; cited from earlier work

Chain of GRPR (Homo sapiens, UniProt P30550) (P30550 whole entry): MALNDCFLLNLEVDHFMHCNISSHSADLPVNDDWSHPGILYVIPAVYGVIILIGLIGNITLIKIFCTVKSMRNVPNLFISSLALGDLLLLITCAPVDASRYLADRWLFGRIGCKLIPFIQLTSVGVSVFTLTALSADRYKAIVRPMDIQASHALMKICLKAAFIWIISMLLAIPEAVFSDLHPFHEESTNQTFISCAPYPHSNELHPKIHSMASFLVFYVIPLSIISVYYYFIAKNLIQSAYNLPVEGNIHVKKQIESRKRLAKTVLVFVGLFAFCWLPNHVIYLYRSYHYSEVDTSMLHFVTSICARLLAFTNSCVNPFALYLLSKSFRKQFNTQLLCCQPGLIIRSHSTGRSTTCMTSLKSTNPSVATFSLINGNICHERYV

Intracellular calcium release (GRPR [1]) | Molecule | Ki (GRPR [2]) [nM]
511 ± 45.5 RFUs and > 500 RFUs | Nc1ncnc2c1ncn2[C@@H]1O[C@H](COP(=O)(O)OP(=O)(O)OP(=O)(O)O)[C@@H](O)[C@H]1O [ATP, adenosine triphosphate] | 
 | D-Phe-Gln-Trp-Ala-Val-Gly-His-Leu-ψ-Tac-NH2 [RC-3950-II] | 0.078
